Results: patent publication US9783573B2, “IAP antagonists” (BRISTOL-MYERS SQUIBB COMPANY, priority 2012, dated 2017)

The molecules below were run against N-His-Tb-BIR3 (241-356, XIAP) (Homo sapiens (Human), UniProt P98170) (assay: biochemical). Settings: fluoresceinated modified SMAC peptide, fluorescence polarization; read-out: XIAP BIR3 FPA IC50.
Format: binding

Row | SMILES | IC50 [nM]
1 | CN[C@@H](C)C(=O)N[C@H](C(=O)N1Cc2cc(NC(=O)c3ccc(C(=O)Nc4ccc5c(c4)CN(C(=O)[C@@H](NC(=O)[C@H](C)NC)C(C)(C)C)[C@H](C(=O)N[C@@H](COC)c4ccccc4)C5)cc3)ccc2C[C@H]1C(=O)N[C@@H](COC)c1ccccc1)C(C)(C)C [Example 14, N^1,N^4-bis((S)-2-((S)-3,3-Dimethyl-2-((S)-2-(methylamino)propanamido)butanoyl)-3-(((R)-2-methoxy-1-phenylethyl)carbamoyl)-1,2,3,4-tetrahydroisoquinolin-7-yl)terephthalamide] | 130
2 | CN[C@@H](C)C(=O)N[C@H](C(=O)N1Cc2cc(N(C(=O)C3(C(N)=O)CCC3)[C@H]3C[C@@H](C(=O)N[C@@H]4CCCc5ccccc54)N(C(=O)[C@@H](NC(=O)[C@H](C)NC)C(C)(C)C)C3)ccc2C[C@H]1C(=O)N[C@@H]1CCCc2ccccc21)C(C)(C)C [Example 5, N-((S)-2-((S)-3,3-Dimethyl-2-((S)-2-(methylamino)propanamido)butanoyl)-3-(((R)-1,2,3,4-tetrahydronaphthalen-1-yl)carbamoyl)-1,2,3,4-tetrahydroisoquinolin-7-yl)-N-((3S,5S)-1-((S)-3,3-dimethyl-2-((S)-2-(methylamino)propanamido)butanoyl)-5-(((R)-1,2,3,4-tetrahydronaphthalen-1-yl)carbamoyl)pyrrolidin-3-yl)cyclobutane-1,1-dicarboxamide] | 69
3 | CN[C@@H](C)C(=O)N[C@H](C(=O)N1Cc2cc(C(=O)NC(C)(C)C(=O)N[C@H]3C[C@@H](C(=O)N[C@@H]4CCCc5ccccc54)N(C(=O)[C@@H](NC(=O)[C@H](C)NC)C(C)(C)C)C3)ccc2C[C@H]1C(=O)N[C@@H]1CCCc2ccccc21)C(C)(C)C [Example 29, (S)-2-((S)-3,3-Dimethyl-2-((S)-2-(methylamino)propanamido)butanoyl)-N7-(1-(((3S,5S)-1-((S)-3,3-dimethyl-2-((S)-2-(methylamino)propanamido)butanoyl)-5-(((R)-1,2,3,4-tetrahydronaphthalen-1-yl)carbamoyl)pyrrolidin-3-yl)amino)-2-methyl-1-oxopropan-2-yl)-N3-((R)-1,2,3,4-tetrahydronaphthalen-1-yl)-1,2,3,4-tetrahydroisoquinoline-3,7-dicarboxamide] | 61
4 | CN[C@@H](C)C(=O)N[C@H](C(=O)N1Cc2cc(NC(=O)c3ccc(CO[C@H]4C[C@@H](C(=O)N[C@@H]5CCCc6ccccc65)N(C(=O)[C@@H](NC(=O)[C@H](C)NC)C(C)(C)C)C4)cc3)ccc2C[C@H]1C(=O)N[C@H](C)c1ccccc1F)C(C)(C)C [Example 50, (S)-2-((S)-3,3-Dimethyl-2-((S)-2-(methylamino)propanamido)butanoyl)-7-(4-((((3S,5S)-1-((S)-3,3-dimethyl-2-((S)-2-(methylamino)propanamido)butanoyl)-5-(((R)-1,2,3,4-tetrahydronaphthalen-1-yl)carbamoyl)pyrrolidin-3-yl)oxy)methyl)benzamido)-N-((R)-1-(2-fluorophenyl)ethyl)-1,2,3,4-tetrahydroisoquinoline-3-carboxamide] | 53
5 | CN[C@@H](C)C(=O)N[C@H](C(=O)[C@@H]1C[C@H](NC(=O)[C@@H](CCC(F)(F)F)[C@@H](CCC(F)(F)F)C(=O)Nc2ccc3c(c2)CN(C(=O)[C@@H](NC(=O)[C@H](C)NC)C(C)(C)C)[C@H](C(=O)N[C@@H]2CCCc4ccccc42)C3)CN1C(=O)N[C@@H]1CCCc2ccccc21)C(C)(C)C [Example 37, (2S,3R)-N^1-((3S,5S)-5-((S)-3,3-dimethyl-2-((S)-2-(methylamino)propanamido)butanoyl)-1-(((R)-1,2,3,4-tetrahydronaphthalen-1-yl)carbamoyl)pyrrolidin-3-yl)-N^4-((S)-2-((S)-3,3-dimethyl-2-((S)-2-(methylamino)propanamido)butanoyl)-3-(((R)-1,2,3,4-tetrahydronaphthalen-1-yl)carbamoyl)-1,2,3,4-tetrahydroisoquinolin-7-yl)-2,3-bis(3,3,3-trifluoropropyl) succinamide] | 110
6 | CN[C@@H](C)C(=O)N[C@H](C(=O)N1Cc2cc(NC(=O)c3ccc(CCC(=O)N[C@H]4C[C@@H](C(=O)N[C@@H]5CCCc6ccccc65)N(C(=O)[C@@H](NC(=O)[C@H](C)NC)C(C)(C)C)C4)cc3)ccc2C[C@H]1C(=O)N[C@@H]1CCCc2ccccc21)C(C)(C)C [Example 9, (S)-2-((S)-3,3-Dimethyl-2-((S)-2-(methylamino)propanamido)butanoyl)-7-(4-(3-(((3S,5S)-1-((S)-3,3-dimethyl-2-((S)-2-(methylamino)propanamido)butanoyl)-5-(((R)-1,2,3,4-tetrahydronaphthalen-1-yl)carbamoyl)pyrrolidin-3-yl)amino)-3-oxopropyl)benzamido)-N-((R)-1,2,3,4-tetrahydronaphthalen-1-yl)-1,2,3,4-tetrahydroisoquinoline-3-carboxamide] | 65
7 | CN[C@@H](C)C(=O)N[C@H](C(=O)N1Cc2cc(NC(=O)c3ccc4ccn(C(=O)NC5C[C@@H](C(=O)NC6CCCc7ccccc76)N(C(=O)[C@@H](NC(=O)[C@H](C)NC)C(C)(C)C)C5)c4c3)ccc2C[C@H]1C(=O)NC1CCCc2ccccc21)C(C)(C)C (stereo partly drawn) [Example 53, N^6-((3S)-2-((S)-3,3-Dimethyl-2-((S)-2-(methylamino)propanamido)butanoyl)-3-((1,2,3,4-tetrahydronaphthalen-1-yl)carbamoyl)-1,2,3,4-tetrahydroisoquinolin-7-yl)-N^1-((5S)-1-((S)-3,3-dimethyl-2-((S)-2-(methylamino)propanamido)butanoyl)-5-((1,2,3,4-tetrahydronaphthalen-1-yl)carbamoyl)pyrrolidin-3-yl)-1H-indole-1,6-dicarboxamide] | 140
8 | CN[C@@H](C)C(=O)N[C@H](C(=O)N1Cc2cc(NC(=O)C3CC4(C3)CC(C(=O)N[C@H]3C[C@@H](C(=O)N[C@@H]5CCCc6ccccc65)N(C(=O)[C@@H](NC(=O)[C@H](C)NC)C(C)(C)C)C3)C4)ccc2C[C@H]1C(=O)N[C@@H]1CCCc2ccccc21)C(C)(C)C (stereo partly drawn) [Example 7, N^2-((S)-2-((S)-3,3-Dimethyl-2-((S)-2-(methylamino)propanamido)butanoyl)-3-(((R)-1,2,3,4-tetrahydronaphthalen-1-yl)carbamoyl)-1,2,3,4-tetrahydroisoquinolin-7-yl)-N^6-((3S,5S)-1-((S)-3,3-dimethyl-2-((S)-2-(methylamino)propanamido)butanoyl)-5-(((R)-1,2,3,4-tetrahydronaphthalen-1-yl)carbamoyl)pyrrolidin-3-yl)spiro[3.3]heptane-2,6-dicarboxamide] | 83
9 | CN[C@@H](C)C(=O)N[C@H](C(=O)N1C[C@@H](NC(=O)c2ccc(C(=O)Nc3ccc4c(c3)CN(C(=O)[C@@H](NC(=O)[C@@H](NC)C(C)C)C(C)(C)C)[C@H](C(=O)N[C@@H]3CCCc5ccccc53)C4)cc2)C[C@H]1C(=O)N[C@@H]1CCCc2ccccc21)C(C)(C)C [Example 35] | 200
10 | CN[C@@H](C)C(=O)N[C@H](C(=O)N1Cc2cc(C(=O)NC3(C(=O)N[C@H]4C[C@@H](C(=O)N[C@@H]5CCCc6ccccc65)N(C(=O)[C@@H](NC(=O)[C@H](C)NC)C(C)(C)C)C4)CC3)ccc2C[C@H]1C(=O)N[C@@H]1CCCc2ccccc21)C(C)(C)C [Example 28, (S)-2-((S)-3,3-Dimethyl-2-((S)-2-(methylamino)propanamido)butanoyl)-N7-(1-(((3S,5S)-1-((S)-3,3-dimethyl-2-((S)-2-(methylamino)propanamido)butanoyl)-5-(((R)-1,2,3,4-tetrahydronaphthalen-1-yl)carbamoyl)pyrrolidin-3-yl)carbamoyl)cyclopropyl)-N3((R)-1,2,3,4-tetrahydronaphthalen-1-yl)-1,2,3,4-tetrahydroisoquinoline-3,7-dicarboxamide] | 98
11 | CCN[C@@H](C)C(=O)N[C@H](C(=O)N[C@H](C(=O)N1Cc2cc(OCc3ccc(C(=O)N[C@H]4C[C@@H](C(=O)N[C@@H]5CCCc6ccccc65)N(C(=O)[C@@H](NC(=O)[C@H](C)NC)C(C)(C)C)C4)cc3)ccc2C[C@H]1C(=O)N[C@@H]1CCCc2ccccc21)C(C)(C)C)C(C)(C)C [Example 40, (S)-7-((4-(((3S,5S)-1-((S)-3,3-Dimethyl-2-((S)-2-(methylamino)propanamido)butanoyl)-5-(((R)-1,2,3,4-tetrahydronaphthalen-1-yl)carbamoyl)pyrrolidin-3-yl)carbamoyl)benzyl)oxy)-2-((S)-2-((S)-2-((S)-2-(ethylamino)propanamido)-3,3-dimethylbutanamido)-3,3-dimethylbutanoyl)-N-((R)-1,2,3,4-tetrahydronaphthalen-1-yl)-1,2,3,4-tetrahydroisoquinoline-3-carboxamide] | 660
12 | CN[C@@H](C)C(=O)N[C@H](C(=O)N1Cc2cc(NC(=O)CCc3ccc(C(=O)N[C@H]4C[C@@H](C(=O)N[C@@H]5CCCc6ccccc65)N(C(=O)[C@@H](NC(=O)[C@H](C)NC)C(C)(C)C)C4)cc3)ccc2C[C@H]1C(=O)N[C@@H]1CCCc2ccccc21)C(C)(C)C [Example 8, (S)-2-((S)-3,3-Dimethyl-2-((S)-2-(methylamino)propanamido)butanoyl)-7-(3-(4-(((3S,5S)-1-((S)-3,3-dimethyl-2-((S)-2-(methylamino)propanamido)butanoyl)-5-(((R)-1,2,3,4-tetrahydronaphthalen-1-yl)carbamoyl)pyrrolidin-3-yl)carbamoyl)phenyl)propanamido)-N-((R)-1,2,3,4-tetrahydronaphthalen-1-yl)-1,2,3,4-tetrahydroisoquinoline-3-carboxamide] | 57
13 | CN[C@@H](C)C(=O)N[C@H](C(=O)N1Cc2cc(NCc3ccc(C(=O)N[C@H]4C[C@@H](C(=O)N[C@@H]5CCCc6ccccc65)N(C(=O)[C@@H](NC(=O)[C@H](C)NC)C(C)(C)C)C4)cc3)ccc2C[C@H]1C(=O)N[C@@H]1CCCc2ccccc21)C(C)(C)C [Example 31, (S)-2-((S)-3,3-Dimethyl-2-((S)-2-(methylamino)propanamido)butanoyl)-7-((4-(((3S,5S)-1-((S)-3,3-dimethyl-2-((S)-2-(methylamino)propanamido)butanoyl)-5-(((R)-1,2,3,4-tetrahydronaphthalen-1-yl)carbamoyl)pyrrolidin-3-yl)carbamoyl)benzyl)amino)-N—((R)-1,2,3,4-tetrahydronaphthalen-1-yl)-1,2,3,4-tetrahydroisoquinoline-3-carboxamide] | 71
